What all share (type): functional
For assay [1], the system named is P388. The experiment in a line: In vivo antileukemic activity against mouse P388 cells at 6 mg/kg relative to control.
Assay [2] deals with P388. The experiment in a line: In vivo antileukemic activity against mouse P388 cells at 20 mg/kg relative to control.
The subject of assay [3] is P388. As to the kind of experiment: In vivo antileukemic activity against mouse P388 cells at 10 mg/kg relative to control.
In assay [4] the test system is P388. As to the kind of experiment: In vivo antileukemic activity against mouse P388 cells at 0.5 mg/kg relative to control.
Assay [5] deals with P388. As to the kind of experiment: In vivo antileukemic activity against mouse P388 cells at 1 mg/kg relative to control.

Each structure is given as a SMILES string.

As for `COC(=O)[C@]12OC[C@@]34[C@H](C[C@H]5[C@H](C)C(=O)C(O[C@@H]6O[C@H](CO)[C@@H](O)[C@H](O)[C@H]6O)=C[C@]5(C)[C@H]3[C@@H](O)[C@@H]1O)OC(=O)[C@H](OC(=O)/C=C(\C)C(C)C)[C@@H]24` [BRUCEANTINOSIDE A], the T/C was determined as 118% in the assay with P388 [1]; 172% in the assay with P388 [2]; 152% with P388 [3]; 110% in the assay with P388 [4]; 106% with P388 [5].

`COC(=O)[C@]12OC[C@@]34[C@H](C[C@H]5C(C)=C(O[C@@H]6O[C@H](CO)[C@@H](O)[C@H](O)[C@H]6O)C(=O)C[C@]5(C)[C@H]3[C@@H](O)[C@@H]1O)OC(=O)[C@H](OC(=O)/C=C(\C)C(C)C)[C@@H]24` [BRUCEANTINOSIDE B]: the values for the T/C in the assay on P388 [2] and with P388 [3] were 160% and 132%, respectively.

(Values after ChEMBL document CHEMBL1151369, “Antitumor agents. 39. Bruceantinoside-A and -B, novel antileukemic quassinoid glucosides from Brucea antidysenterica” (1981).)
